One assay addresses 5E5 (anti-MUC1) antibody. In words: Antigen-antibody binding studies by surface plasmon resonance (SPR). The arrangement: species or system mouse. To be noted: for Kd: SPR, 5E5 immobilised on CM5 chip, 20° C. and 7.5 pH. The protocol:
Surface plasmon resonance (SPR) experiments were performed with a Biacore X-100 apparatus (Biacore, GE) in HBS-EP buffer solution at 7.5 pH (10 mM Hepes, 150 mM NaCl, 3 mM EDTA, with 2% DMSO and 0.05% Tween X100) at […]. This is the running buffer. The 5E5 antibody (from Abcam) was immobilised on a CM5 sensor chip (Biacore, GE) following the standard amine coupling method.^30 Briefly, the carboxymethyl dextran surface of flow cell 2 was activated by a 7 min injection of a 1:1 ratio of a 0.4 M aqueous solution of 1-ethyl-3-(3-dimethylaminopropyl) carbodiimide (EDC) and 0.1 M sulfo-N-hydroxysuccinimide. As such, the antibody was bound to the surface using various dilutions in 10 mM sodium acetate, 4.0. pH during a 7 min injection. […] The flow cell 1 was used as a reference and treated as the flow cell 2 (amine coupling method) without protein. Before use, 50 mM stock solutions of peptide ligand were diluted to the final concentration in the running buffer. Therefore, a series of different compounds were injected into the sensor chip at a flow rate of 30 μl/min for a period of 1 min followed by a dissociation period of 1 min. No regeneration was required. FIGS. 2A and 2B show the response-concentration curves obtained for the binding of glycopeptide 21 and 24, respectively, towards the 5E5 (anti-MUC1) antibody at 20° C. in SPR experiments.
The sensogram data were obtained in duplicate and processed with the Biae Evaluation X100 software (Biacore, GE). Experimental data from the affinity measurements were fitted to a specific two-site binding model using Prism software.
A general note: Surface plasmon resonance follows binding to a sensor surface in real time, without labels.

Assay [1] deals with Glycopeptide 24 (…(GalNCOEt)APPA). In words: SPR, ratio of the KD values of glycopeptides 21 and 24 for 5E5.
The target of assay [2] is Glycopeptide 21 (…(GalNAc)APPA). In words: SPR (Biacore X-100), 5E5 immobilised on CM5 chip, glycopeptide as analyte, steady-state fit.
The target in assay [3] is Glycopeptide 24 (…(GalNCOEt)APPA). The description is as above.

What is called Kd is a measure of binding affinity in units of concentration. Higher therefore signals lower affinity. “GGGGPAPGST(GalNAc)APPA [Glycopeptide 21, reference compound]”: on 5E5 (anti-MUC1) antibody, the Kd came to 540 nM.
Take “GGGGPAPGST(GalNCOEt)APPA [Glycopeptide 24]”: the Kd at 5E5 (anti-MUC1) antibody came out at 83 nM. The “affinity relative to the natural glycopeptide (21)” value in the assay on 5E5 (anti-MUC1) antibody (anti-MUC1 antibody 5E5, SPR) worked out at 6.5 times.
As for mouse monoclonal anti-MUC1 5E5 antibody, the fold higher affinity than the natural peptide (21) in assay [1] was 6.5 times. In addition, the values for the Kd in assay [2] and in assay [3] were 540 nM and 83 nM, respectively.
